Results reported in patent US6956039B2, “Nitrogenous heterocylic compounds” (Millennium Pharmaceuticals, Inc., priority 2000, dated 2005).

Legend:
β-PDGFR [1] = target: T1, β-PDGFR (Homo sapiens, UniProt P09619); assay: MG63 phosphorylation assay (endogenous β-PDGFR phosphorylation, PDGF-BB stimulation with human plasma); type: cell-based; parameters: This assay is for measuring endogenous β-PDGFR phosphorylation in MG63 cells; endogenous in cells; host or cells: MG63 human osteosarcoma cells (ATCC); conditions: MG63 human osteosarcoma cells; PDGF-BB stimulation in presence of 45% human plasma; PDGF receptor phosphorylation; read-out: MG63 w/human plasma IC50
Procedure: For the phosphorylation assay according to the invention, HR5 cells were grown to confluency in 96-well microtiter plates under standard tissue culture conditions, followed by serum-starvation for 16 hours. Quiescent cells were incubated at 37° C. without or with increasing concentrations of the test compound (0.01-30 uM) for 30 minutes followed by the addition of 8 nM PDGF BB for 10 minutes. Cells were lysed in 100 mM Tris, pH7.5, 750 mM NaCl, 0.5% Triton X-100, 10 mM sodium pyrophosphate, 50 mM NaF, 10 ug/ml aprotinin, 10 ug/ml leupeptin, 1 mM phenylmethylsulfonyl fluoride, 1 mM sodium vanadate, and the lysate was cleared by centrifugation at 15,000×g for 5 minutes. Clarified lysates were transferred into a second microtiter plate in which the wells were previously coated with 500 ng/well of 1B5B11 anti-β-PDGFR mAb, and then incubated for two hours at room temperature. After washing three times with binding buffer (0.3% gelatin, 25 mM Hepes pH 7.5, 100 mM NaCl, 0.01% Tween-20), 250 ng/ml of rabbit polyclonal anti-phosphotyrosine antibody (Transduction Laboratory) was added and plates were incubated at 37° C. for 60 minutes. […] Wells were washed prior to adding ABTS (Sigma), and the rate of substrate formation was monitored at 650 nm. […]

β-PDGFR [2] = target: T1, β-PDGFR; assay: HR5 phosphorylation assay (CHO cells overexpressing human β-PDGFR); type: cell-based; parameters: host or cells: CHO cells (HR5 line); conditions: 8 nM PDGF BB for 10 minutes, PDGF receptor phosphorylation
Procedure: The HR5 cell line is a cell line of CHO cells engineered to overexpress human β-PDGFR, which cell line is available from the ATCC. The expression level of β-PDGFR in HR5 cells is around 5×10^4 receptor per cell. For the phosphorylation assay according to the invention, HR5 cells were grown to confluency in 96-well microtiter plates under standard tissue culture conditions, followed by serum-starvation for 16 hours. Quiescent cells were incubated at 37° C. without or with increasing concentrations of the test compound (0.01-30 uM) for 30 minutes followed by the addition of 8 nM PDGF BB for 10 minutes. Cells were lysed in 100 mM Tris, pH7.5, 750 mM NaCl, 0.5% Triton X-100, 10 mM sodium pyrophosphate, 50 mM NaF, 10 ug/ml aprotinin, 10 ug/ml leupeptin, 1 mM phenylmethylsulfonyl fluoride, 1 mM sodium vanadate, and the lysate was cleared by centrifugation at 15,000×g for 5 minutes. Clarified lysates were transferred into a second microtiter plate in which the wells were previously coated with 500 ng/well of 1B5B11 anti-β-PDGFR mAb, and then incubated for two hours at room temperature. […] Wells were washed prior to adding ABTS (Sigma), and the rate of substrate formation was monitored at 650 nm.

T1 sequence (P09619 33-1106): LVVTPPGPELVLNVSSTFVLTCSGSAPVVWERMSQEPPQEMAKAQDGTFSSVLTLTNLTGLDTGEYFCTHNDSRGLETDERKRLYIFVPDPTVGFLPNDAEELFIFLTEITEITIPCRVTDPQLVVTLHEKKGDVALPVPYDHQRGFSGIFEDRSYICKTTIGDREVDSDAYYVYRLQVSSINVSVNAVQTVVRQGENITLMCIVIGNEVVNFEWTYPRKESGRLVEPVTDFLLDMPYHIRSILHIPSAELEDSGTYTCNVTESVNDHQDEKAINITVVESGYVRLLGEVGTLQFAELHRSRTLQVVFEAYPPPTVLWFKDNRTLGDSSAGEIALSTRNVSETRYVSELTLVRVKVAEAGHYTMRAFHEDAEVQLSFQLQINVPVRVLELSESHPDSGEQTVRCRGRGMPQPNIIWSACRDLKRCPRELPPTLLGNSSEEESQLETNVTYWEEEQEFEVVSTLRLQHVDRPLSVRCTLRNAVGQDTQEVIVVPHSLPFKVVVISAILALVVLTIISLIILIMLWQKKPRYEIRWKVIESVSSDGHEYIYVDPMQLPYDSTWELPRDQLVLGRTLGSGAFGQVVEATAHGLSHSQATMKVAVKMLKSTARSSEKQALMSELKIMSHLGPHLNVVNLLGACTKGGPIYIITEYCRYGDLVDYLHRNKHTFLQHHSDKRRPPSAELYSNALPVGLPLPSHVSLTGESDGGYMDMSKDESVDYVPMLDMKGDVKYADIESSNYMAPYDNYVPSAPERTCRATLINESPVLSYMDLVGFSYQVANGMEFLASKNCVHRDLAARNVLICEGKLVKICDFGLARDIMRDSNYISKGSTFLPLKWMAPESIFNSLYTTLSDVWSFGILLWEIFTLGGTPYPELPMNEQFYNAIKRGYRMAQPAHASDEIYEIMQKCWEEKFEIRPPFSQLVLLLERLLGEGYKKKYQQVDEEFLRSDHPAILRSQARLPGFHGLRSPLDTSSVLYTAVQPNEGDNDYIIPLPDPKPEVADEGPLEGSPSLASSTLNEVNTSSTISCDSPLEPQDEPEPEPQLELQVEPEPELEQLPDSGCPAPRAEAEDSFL

IC50 (β-PDGFR [1]): 103 nM
IC50 (β-PDGFR [2]): 150 nM
SMILES: c1nc(N2CCNCC2)c2ccc(OCCN3CCCCC3)cc2n1 [Example 1, 4-piperazinyl-7-(2-piperidylethoxy)quinazoline]
